Patent publication US7901716B2, “Active fraction having anti-cancer and anti-metastasis isolated from leaves and stems of ginseng” (MD Bioalpha Co., Ltd., priority 2002, dated 2011)

Method: In the present experiment, the number of immune cells was measured in co-administration of MB40100, which was expected to reduce the immune inhibition occurring with administration of cyclophosphamide.
24 hours and 48 hours after administration of cyclophosphamide (250 mg/kg), MB40100 was abdominally administered in mice at the different dosages (10 mg/kg, 20 mg/kg), respectively. After 7 days, the mice were killed to separate bone marrow cells and splenocytes, and then the number of these cells was counted pursuant to the tryphan blue exclusion method.
Peripheral blood was rapidly gathered from the eyeball distal vein using a heparin-treated capillary glass tube and collected in a K3-EDTA-treated blood-gathering tube, then examined it with an automatic globule analyzer.

## O=P1(N(CCCl)CCCl)NCCCO1 (stereo not drawn) [cyclophosphamide]
Cyclophosphamide 250 mg/kg alone
  reduction of number of WBC compared with normal mouse: about 30%
Cyclophosphamide 250 mg/kg alone, normal mouse 7800
  number of WBC in blood: 5300
Cyclophosphamide alone
  number of splenocytes less than normal mouse: about 72.8%
Cyclophosphamide alone, 7 days after
  decrease of bone marrow cell density versus normal mouse: 29.2%
Cyclophosphamide alone, 7 days after, normal mouse 41.1×10^6
  bone marrow cell density: 29.6×10^6 cells/ml
Cyclophosphamide alone, peripheral blood
  number of thrombocytes less than normal mouse: about 56%
